Test results: patent US20030175690A1 (priority 1999, published 2003)

Target: NL4-3 protease (Human immunodeficiency virus type 1 group M subtype B, UniProt P12497)
Conditions: reference clone reconstructed with NL4-3 protease; HeLa cells; drug 0.1 μM; supernatant 48 hours after transfection
Procedure: Positive colonies were grown in 5 mL LB medium, the plasmids extracted, and HeLa cells grown to 50% confluence on an 8-well plate (Costar), transfected by lipofectin (Bethesda Research Laboratories) in triplicate using pΔproΔRTΔenv (0.5 μg) containing the exogenous HIV-1 PR sequences. […] The degree of inhibition of viral expression was documented by the ratio between the levels of p24Ag detected in the presence and in the absence of the anti-viral compound (R=p24Ag^drug,/p24Ag^medium). The percent Sensitivity Index (SI%=100×R^reference/R^sample) was introduced to normalise differences due to cell related variables among different experiments. Proteases displaying SI% values greater than 80% were considered fully sensitive; partially sensitive (intermediate phenotype) between 80 and 60%; and resistant when lower than 60%.
The HIV-1 PR coding sequences amplified from the 13 culture supernatants or directly from the 6 plasma samples were cloned into the pΔproΔRTΔenv nonreplicative backbone, and the resulting plasmids were transfected into semiconfluent HeLa cells. After 48 hours of incubation the supernatants were assayed for HIV-1 p24Ag concentration.
This index was determined by normalising the R value of each clinical sample (R^sample) to that of the NL4-3 reference strain (R^reference) evaluated in parallel experiment, according to the function SI%=100×R^reference/R^sample.

CC(C)c1nc(CN(C)C(=O)N[C@H](C(=O)N[C@@H](Cc2ccccc2)C[C@H](O)[C@H](Cc2ccccc2)NC(=O)OCc2cncs2)C(C)C)cs1 [RTV, ritonavir]
production of HIV-1 p24Ag by the reference clone in the presence of drug, compared with PI-free medium: strongly inhibited
